Assay [1] has as its system BT-20 (Breast Cancer). Put plainly: MTT cytotoxicity assay, BT-20 cells, 48 hours. Format: cell-based. The note with it: 48 hours incubation, read-out: IC50 [MTT Assays] BT-20 (Breast Cancer). The protocol:
(§1) Cytotoxicity was determined by MTT assays and the IC50 values were determined using Graphpad Prism Software.
For orientation: Formazan colour is commonly taken as a measure of viable cells.

In assay [2] the test system is U373 (Brain Tumor). Put plainly: MTT cytotoxicity assay, U373 cells, 48 hours. Format: cell-based. The note with it: 48 hours incubation, read-out: IC50 [MTT Assays] U373 (Brain Tumor). The protocol: as §1
For assay [3], the system named is PC3 (Prostate Cancer). Put plainly: MTT cytotoxicity assay, PC3 cells, 48 hours. The class given is cell-based. The note with it: 48 hours incubation, read-out: IC50 [MTT Assays] PC3 (Prostate Cancer). The protocol:
as §1

For assay [4], the system named is MOLT-3 (Leukemia). Description: MTT cytotoxicity assay, MOLT-3 cells, 48 hours. Format: cell-based, human. The note with it: 48 hours incubation, read-out: IC50 [MTT Assays] MOLT-3 (Leukemia). The protocol:
(§2) The cells were incubated with concentrations ranging from 0.1 μM to 250 μM of the appropriate compound in 96-well plates for 48 hours. Cytotoxicity was determined by MTT [(3-[4,5-dimethylthiazol-2-yl]-2,5-diphenyl tetrazolium bromide)] assays. The results are graphed in FIG. 1a for NALM-6 cells and FIG. 1b for MOLT-3 cells.
as §1

Assay [5] concerns NALM-6 (Leukemia). Put plainly: MTT cytotoxicity assay, NALM-6 cells, 48 hours. The class given is cell-based, human. The note with it: 48 hours incubation, read-out: IC50 [MTT Assays] NALM-6 (Leukemia). The method, then: as §2, §1
Assay [6] deals with U266BL (Multiple Myeloma). Description: MTT cytotoxicity assay, U266BL cells, 48 hours. Format: cell-based. The note with it: 48 hours incubation, read-out: IC50 [MTT Assays] U266BL (Multiple Myeloma). The protocol: as §1
Assay [7] has as its system HS-Sultan (Multiple Myeloma). Description: MTT cytotoxicity assay, HS-Sultan cells, 48 hours. The note with it: 48 hours incubation, read-out: IC50 [MTT Assays] HS-Sultan (Multiple Myeloma). The class given is cell-based. The protocol: as §1
The test system of assay [8] is T-lineage acute lymphoblastic leukemia (MOLT-3) cells. Put plainly: In situ apoptosis assay (TUNEL), MOLT-3 cells. The class given is cell-based, human. The note with it: 5 μM, 48 hours. The method, then: (§3) The effectiveness of inducing apoptosis by compound (5) as synthesized and described in example 2 was measured for human B-lineage acute lymphoblastic leukemia (NALM-6) cells, T-lineage acute lymphoblastic leukemia (MOLT-3) cells, and multiple myeloma (ARH-77) cells. The cells were incubated with concentrations of 5 μM of compound (5) in 96-well plates 48 hours. An in situ apoptosis assay, which allows the detection of exposed 3′-hydroxyl groups in fragmented DNA by TdT-mediated dUTP nick-end labeling (TUNEL), was used by fixing, permeabilizing and visualizing the DNA degradation. Apoptotic nuclei were detected visually with a color change. The amount of apoptotic nuclei of the control cells (not incubated with compound (5)) and the incubated cells were compared.

Assay [9] has as its system B-lineage acute lymphoblastic leukemia (NALM-6) cells. Put plainly: In situ apoptosis assay (TUNEL), NALM-6 cells. The class given is cell-based, human. The note with it: 5 μM, 48 hours. The method, then:
as §3

Assay [10] deals with MDA-MB-231 (Breast Cancer). Put plainly: MTT cytotoxicity assay, MDA-MB-231 cells, 48 hours. The note with it: 48 hours incubation, read-out: IC50 [MTT Assays] MDA-MB-231 (Breast Cancer). Format: cell-based. The method, then: as §1
In assay [11] the test system is T-lineage acute lymphoblastic leukemia (MOLT-3) cells. Description: Clonogenic growth assay, MOLT-3 cells. Format: cell-based, human. The note with it: 24 hours exposure, 7 days culture. The method, then: (§4) The effect on clonogenic growth of human cancer cell lines was determined for compound (5) as synthesized and described in example 2 and cisplastin for human B-lineage acute lymphoblastic leukemia (NALM-6) cells and T-lineage acute lymphoblastic leukemia (MOLT-3) cells. The cells were incubated with concentrations ranging from 0 (control) to 10 μM of the appropriate compound for 24 hours at 37° C. in a humidified 5% CO2 atmosphere. The cells were then resuspended in clonogenic a-MEM medium containing 0.9% methyl cellulose. 1×10^4 cells/dish were plated in 35 mm Petri dishes and cultured for 7 days at 37° C. in a humidified 5% CO2 atmosphere. The colonies containing ≧20 cells were counted using an inverted phase microscope.

For assay [12], the system named is multiple myeloma (ARH-77) cells. Description: In situ apoptosis assay (TUNEL), ARH-77 cells. The note with it: 5 μM, 48 hours. The class given is cell-based, human. The protocol:
as §3

Assay [13] deals with B-lineage acute lymphoblastic leukemia (NALM-6) cells. Put plainly: Clonogenic growth assay, NALM-6 cells. Format: cell-based, human. The note with it: 24 hours exposure, 7 days culture. The method, then: as §4

Take “cis-[Pt(CPDCA)(NH2C2H4OH)2] [(3) DDE248]”: the IC50 in [1] was 48.9 ± 7.3 µM; in assay [2], 130 ± 8.2 µM; in assay [3], 248 ± 9.3 µM; in assay [4] it was 33.5 ± 4.5 µM; in assay [5], 75.3 ± 5.2 µM.

Turning to `N.N.[Cl][Pt][Cl]` [Cisplatin, reference compound], the IC50 in assay [1] is 7.21 ± 3.5 µM; in assay [2] it was greater than 250 µM; in assay [6], 15.6 ± 3.5 µM; in assay [3], greater than 250 µM; in assay [4], 1.04 ± 0.02 µM; in [7], 31.8 ± 7.2 µM. Moreover, the IC50 in assay [5] came to 1.1 ± 0.02 µM.

On to cis-[Pt(CPDCA)(NH3)2]H2O [(6) DDE173], for which the IC50 is greater than 250 µM in assay [1]; greater than 250 µM in assay [2]; greater than 250 µM in assay [3]; 41.8 ± 3.5 µM in assay [4]; 90.8 ± 6.2 µM in assay [5].

On to cis-[Pt(CPDCA)(DACH)]H2O [(5) DDE250], for which the “apoptosis (apoptotic nuclei, TUNEL) over the control” value in assay [8], in [9] and in assay [12] was “greatly increased apoptosis over the control” throughout. Further, the IC50 in assay [1] was 21.3 ± 3.1 µM; in [10] it was 38.5 ± 6.4 µM; in [2] it was greater than 250 µM; in [6], 18.6 ± 2.1 µM; in assay [3], greater than 250 µM; in assay [4], 0.66 ± 0.01 µM. Besides, the IC50 was found to be 21.5 ± 3.5 µM in [7] and 0.45 ± 0.02 µM in assay [5]. Moreover, the “% Inhibition (clonogenic growth)” value in assay [11] (MOLT-3, 0.01 μM) was 67.7%; in assay [11] (MOLT-3, 0.1 μM) it was 67.5%; in assay [11] (MOLT-3, 1 μM) it was 95.1%; in assay [13] (NALM-6, 0.01 μM), 42.9%; in assay [13] (NALM-6, 0.1 μM) it was 48.4%; in assay [13] (NALM-6, 1 μM) it was 93.3%. For the same compound, the “Mean No. of Colonies/10^5 cells” value was 1182 (1080, 1284) Colonies/10^5 cells in assay [11] (MOLT-3, 0.01 μM); 1188 (1095, 1281) Colonies/10^5 cells in [11] (MOLT-3, 0.1 μM); 179 (170, 188) Colonies/10^5 cells in assay [11] (MOLT-3, 1 μM); 0 Colonies/10^5 cells in assay [11] (MOLT-3, 10 μM); 2110 (1928, 2292) Colonies/10^5 cells in assay [13] (NALM-6, 0.01 μM); 1908 (1886, 1930) Colonies/10^5 cells in assay [13] (NALM-6, 0.1 μM). Also, the “Mean No. of Colonies/10^5 cells” value is listed as 248 (228, 268) Colonies/10^5 cells in assay [13] (NALM-6, 1 μM) and 0 Colonies/10^5 cells in [13] (NALM-6, 10 μM).

The term IC50 denotes the concentration that gives 50% inhibition.

The values are drawn from patent US6737537B2, “Platinum (II) antitumor compounds” (Parker Hughes Institute, priority 1999, dated 2004).
